What follows are compounds tested against T1, hGPR40 (Homo sapiens, UniProt O14842) (assay: FDSS-Based Intracellular Calcium Assay). Details: cells expressing GPR40, intracellular Ca2+ response.
T1 construct: 3x FLAG; expressed in transfected cells
Assay type: cell-based
Method in brief: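 Flag-tagged GPR40-expressing cells plated overnight in serum-free, phenol red-free DMEM. Compounds added from DMSO stocks, diluted in assay buffer and added as 3x solution. Intracellular Ca^2+ flux read by fluorescence on an FDSS reader.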

T1 sequence (O14842 whole entry): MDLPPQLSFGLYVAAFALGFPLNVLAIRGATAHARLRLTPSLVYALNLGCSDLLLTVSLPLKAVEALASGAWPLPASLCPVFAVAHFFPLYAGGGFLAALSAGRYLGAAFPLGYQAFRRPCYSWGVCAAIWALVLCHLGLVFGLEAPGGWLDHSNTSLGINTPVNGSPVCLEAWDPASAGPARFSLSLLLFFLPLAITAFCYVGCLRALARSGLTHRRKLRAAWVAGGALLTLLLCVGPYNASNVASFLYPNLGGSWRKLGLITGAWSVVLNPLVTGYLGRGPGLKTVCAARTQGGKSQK

Row | Compound | EC50
1 | O=C(O)CC1CC(C(F)(F)F)=NN1c1ccc(OCc2ccccc2)cc1 (racemic) [Example 1, 2-(1-(4-(benzyloxy)phenyl)-3-(trifluoromethyl)-4,5-dihydro-1H-pyrazol-5-yl)acetic acid] | 1960 nM
2 | COc1cccc(-c2cc(C)c(Oc3ccc(N4N=C(C#N)CC4CC(=O)O)cc3)cc2C)c1 (racemic) [Example 36, 2-(3-cyano-1-(4-(3′-methoxy-2,5-dimethylbiphenyl-4-yloxy)phenyl)-4,5-dihydro-1H-pyrazol-5-yl)acetic acid] | 590 nM
3 | COc1cccc(-c2ccc(Cc3ccc(N4N=C(C#N)CC4CC(=O)O)cc3)c(C)c2)c1 (racemic) [Example 38, 2-(3-cyano-1-(4-((3′-methoxy-3-methylbiphenyl-4-yl)methyl)phenyl)-4,5-dihydro-1H-pyrazol-5-yl)acetic acid] | 190 nM
4 | C[C@@H]1C(C(F)(F)F)=NN(c2ccc(CCCc3ccccc3)cc2)[C@H]1CC(=O)O [Example 71, 2-((4S,5S)-4-methyl-1-(4-(3-phenylpropyl)phenyl)-3-(trifluoromethyl)-4,5-dihydro-1H-pyrazol-5-yl)acetic acid] | 5760 nM
5 | Cc1ccccc1Oc1ccc(N2N=C(C#N)CC2CC(=O)O)cc1 (single isomer, unassigned) [Example 3, Isomer 2, 2-(3-cyano-1-(4-(o-tolyloxy)phenyl)-4,5-dihydro-1H-pyrazol-5-yl)acetic acid] | 560 nM
6 | Cc1cc(Br)ccc1Oc1ccc(N2N=C(C(F)(F)F)CC2CC(=O)O)cc1 (racemic) [Example 13, 2-(1-(4-(4-bromo-2-methylphenoxy)phenyl)-3-(trifluoromethyl)-4,5-dihydro-1H-pyrazol-5-yl)acetic acid] | 160 nM
7 | COc1ccc(F)c(-c2ccc(Oc3ccc(N4N=C(c5ncco5)CC4CC(=O)O)cc3)c(C)c2)c1 (single isomer, unassigned) [Example 8, Isomer 1, 2-(1-(4-(2′-fluoro-5′-methoxy-3-methylbiphenyl-4-yloxy)phenyl)-3-(oxazol-2-yl)-4,5-dihydro-1H-pyrazol-5-yl)acetic acid] | 910 nM
8 | COc1ccc(F)c(-c2cnc(Oc3ccc(N4N=C(C(F)(F)F)[C@@H](C)[C@@H]4CC(=O)O)cc3)nc2)c1 [Example 65, 2-((4S,5S)-1-(4-(5-(2-fluoro-5-methoxyphenyl)pyrimidin-2-yloxy)phenyl)-4-methyl-3-(trifluoromethyl)-4,5-dihydro-1H-pyrazol-5-yl)acetic acid] | 1490 nM
9 | Cc1cc(Oc2ccc(N3N=C(C#N)CC3CC(=O)O)cc2)c(C)cc1Br (racemic) [Example 31, 2-(1-(4-(4-bromo-2,5-dimethylphenoxy)phenyl)-3-cyano-4,5-dihydro-1H-pyrazol-5-yl)acetic acid] | 360 nM
10 | N#CC1=NN(c2ccc(OCc3ccc(Cl)cc3Cl)cc2)C(CC(=O)O)C1 (racemic) [Example 33, 2-(3-cyano-1-(4-(2,4-dichlorobenzyloxy)phenyl)-4,5-dihydro-1H-pyrazol-5-yl)acetic acid] | 300 nM
11 | COc1ccc(F)c(-c2ccc(Oc3ccc(N4N=C(C(F)(F)F)CC4CC(=O)O)cc3)c(Cl)c2)c1 (single isomer, unassigned) [Example 42, Isomer 2, 2-(1-(4-(3-chloro-2′-fluoro-5′-methoxybiphenyl-4-yloxy)phenyl)-3-(trifluoromethyl)-4,5-dihydro-1H-pyrazol-5-yl)acetic acid] | 290 nM
12 | COc1ccc(F)c(-c2ncc(Cc3ccc(N4N=C(c5ccccc5)[C@@H](C)[C@@H]4CC(=O)O)cc3)c(C)n2)c1 [Example 64, 2-((4S,5S)-1-(4-((2-(2-fluoro-5-methoxyphenyl)-4-methylpyrimidin-5-yl)methyl)phenyl)-4-methyl-3-phenyl-4,5-dihydro-1H-pyrazol-5-yl)acetic acid] | 270 nM
13 | COc1ccc(F)c(-c2ccc(Oc3ccc(N4N=C(c5ncco5)CC4CC(=O)O)cc3)c(C)c2)c1 (single isomer, unassigned) [Example 8, Isomer 2, 2-(1-(4-(2′-fluoro-5′-methoxy-3-methylbiphenyl-4-yloxy)phenyl)-3-(oxazol-2-yl)-4,5-dihydro-1H-pyrazol-5-yl)acetic acid] | 1160 nM

Other lines, results leading:

Row | EC50 | Compound
14 | 220 nM | COc1ccc(F)c(-c2ccc(Cc3ccc(N4N=C(C(F)(F)F)C(C)(C)C4CC(=O)O)cc3)c(C)c2)c1 (single isomer, unassigned) [Example 50, Isomer 1, 2-(1-(4-((2′-fluoro-5′-methoxy-3-methylbiphenyl-4-yl)methyl)phenyl)-4,4-dimethyl-3-(trifluoromethyl)-4,5-dihydro-1H-pyrazol-5-yl)acetic acid]
15 | 700 nM | COc1ccc(F)c(-c2ncc(Cc3ccc(N4N=C(C(F)(F)F)[C@@H](C)[C@@H]4CC(=O)O)cc3)c(C)n2)c1 (single isomer, unassigned) [Example 63]
16 | 9 nM | COc1ccc(F)c(-c2ccc(Cc3ccc(N4N=C(c5ccc(F)cc5)[C@@H](C)[C@@H]4CC(=O)O)cc3)c(C)c2)c1 (single isomer, unassigned) [Example 67, isomer 1]
17 | 6470 nM | COc1ccc(F)c(-c2ccc(Cc3ccc(N4N=C(c5ccccc5)C(C)C4CC(=O)O)cc3)c(C)c2)c1 (single isomer, unassigned) [Example 59, Isomer 1, 2-(1-(4-((2′-fluoro-5′-methoxy-3-methyl-[1,1′-biphenyl]-4-yl)methyl)phenyl)-4-methyl-3-phenyl-4,5-dihydro-1H-pyrazol-5-yl)acetic acid]
18 | 1100 nM | COc1ccc(F)c(-c2ccc(Cc3ccc(N4N=C(C(F)(F)F)C(CC#N)C4CC(=O)O)cc3)c(C)c2)c1 (single isomer, unassigned) [Example 54, Isomer 2, 2-(4-(cyanomethyl)-1-(4-((2′-fluoro-5′-methoxy-3-methyl-[1,1′-biphenyl]-4-yl)methyl)phenyl)-3-(trifluoromethyl)-4,5-dihydro-1H-pyrazol-5-yl)acetic acid, trans-diastereomer]
19 | 8460 nM | COc1ccc(F)c(-c2ccc(Cc3ccc(N4N=C(c5cccc(Cl)c5)[C@@H](C)[C@@H]4CC(=O)O)cc3)c(C)c2)c1 (single isomer, unassigned) [Example 68, isomer 2]
20 | 300 nM | COc1ccc(F)c(-c2ccc(Cc3ccc(N4N=C(C#N)C(C)C4CC(=O)O)cc3)c(C)c2)c1 (single isomer, unassigned) [Example 52, Isomer 2, 2-(3-cyano-1-(4-((2′-fluoro-5′-methoxy-3-methylbiphenyl-4-yl)methyl)phenyl)-4-methyl-4,5-dihydro-1H-pyrazol-5-yl)acetic acid]
21 | 3280 nM | COc1ccc(F)c(-c2ccc(Cc3ccc(N4N=C(C(F)(F)F)C(C5CC5)C4CC(=O)O)cc3)c(C)c2)c1 (single isomer, unassigned) [Example 43, Isomer 1, 2-(4-cyclopropyl-1-(4-((2′-fluoro-5′-methoxy-3-methylbiphenyl-4-yl)methyl)phenyl)-3-(trifluoromethyl)-4,5-dihydro-1H-pyrazol-5-yl)acetic acid]
22 | 150 nM | Cc1cc(-c2cc(O)ccc2F)ccc1Cc1ccc(N2N=C(C(F)(F)F)[C@@H](C)[C@@H]2CC(=O)O)cc1 [Example 56, 2-((4S,5S)-1-(4-((2′-fluoro-5′-hydroxy-3-methyl-[1,1′-biphenyl]-4-yl)methyl)phenyl)-4-methyl-3-(trifluoromethyl)-4,5-dihydro-1H-pyrazol-5-yl)acetic acid]
23 | 120 nM | CCOc1ccc(F)c(-c2ccc(Cc3ccc(N4N=C(C(F)(F)F)[C@@H](C)[C@@H]4CC(=O)O)cc3)c(C)c2)c1 [Example 70, 2-((4S,5S)-1-(4-((5′-ethoxy-2′-fluoro-3-methyl-[1,1′-biphenyl]-4-yl)methyl)phenyl)-4-methyl-3-(trifluoromethyl)-4,5-dihydro-1H-pyrazol-5-yl)acetic acid]
24 | 90 nM | COc1ccc(F)c(-c2ccc(Cc3ccc(N4N=C(C(F)(F)F)CC4CC(=O)O)cc3)c(C)c2)c1 (single isomer, unassigned) [Example 17, Isomer 2, 2-(1-(4-((2′-fluoro-5′-methoxy-3-methylbiphenyl-4-yl)methyl)phenyl)-3-(trifluoromethyl)-4,5-dihydro-1H-pyrazol-5-yl)acetic acid]
25 | 1600 nM | COc1ccc(F)c(-c2ccc(Cc3ccc(N4N=C(c5ccccn5)C(C)C4CC(=O)O)cc3)c(C)c2)c1 (single isomer, unassigned) [Example 62, isomer 1, 2-(1-(4-((2′-fluoro-5′-methoxy-3-methylbiphenyl-4-yl)methyl)phenyl)-4-methyl-3-(pyridin-2-yl)-4,5-dihydro-1H-pyrazol-5-yl)acetic acid]
26 | > 16600 nM | COc1ccc(F)c(-c2ccc(Cc3ccc(N4N=C(c5ncccn5)C(C)C4CC(=O)O)cc3)c(C)c2)c1 (single isomer, unassigned) [Example 61 isomer 1]
27 | 920 nM | COCC1C(C(F)(F)F)=NN(c2ccc(Cc3ccc(-c4cc(OC)ccc4F)cc3C)cc2)C1CC(=O)O (single isomer, unassigned) [Example 48, Isomer 2, 2-(1-(4-((2′-fluoro-5′-methoxy-3-methylbiphenyl-4-yl)methyl)phenyl)-4-(methoxymethyl)-3-(trifluoromethyl)-4,5-dihydro-1H-pyrazol-5-yl)acetic acid]
28 | 40 nM | COc1ccc(F)c(-c2ccc(Cc3ccc(N4N=C(C(F)(F)F)C(C)C4CC(=O)O)cc3)c(Cl)c2)c1 (single isomer, unassigned) [Example 60, Isomer 2, 22-(1-(4-((3-chloro-2′-fluoro-5′-methoxy-[1,1′-biphenyl]-4-yl)methyl)phenyl)-4-methyl-3-(trifluoromethyl)-4,5-dihydro-1H-pyrazol-5-yl)acetic acid]
29 | 3820 nM | COc1ccc(F)c(-c2ccc(Cc3ccc(N4N=C(C(F)(F)F)C(C(C)C)C4CC(=O)O)cc3)c(C)c2)c1 (single isomer, unassigned) [Example 45, Isomer 1, 2-(1-(4-((2′-fluoro-5′-methoxy-3-methylbiphenyl-4-yl)methyl)phenyl)-4-isopropyl-3-(trifluoromethyl)-4,5-dihydro-1H-pyrazol-5-yl)acetic acid]

Reference: patent publication US9656963B2 (BRISTOL-MYERS SQUIBB COMPANY, priority 2012, dated 2017)
